The values below are quoted from earlier work in patent US6753013B1, “Pharmaceutical composition” (Leo Pharmaceutical Products, Ltd. A/S, priority 1999, dated 2004).

This data set deals with psoriatic skin. The settings on record: simultaneous application of a steroid, such as betamethasone, onto psoriatic skin.

The structures appear in SMILES notation.

On to `C=C1/C(=C\C=C2/CCC[C@]3(C)[C@@H]([C@H](C)/C=C/[C@@H](O)C4CC4)CC[C@@H]23)C[C@@H](O)C[C@@H]1O` [calcipotriol], for which the “Skin irritative side effects” value is listed as “alleviated”.
